Assay results from publication PMC12040169 (PLOS Biology, 2025).

Test: in vitro
Settings: human, hela cells, % viability

Point of comparison: Cc1ccc(S(=O)(=O)NC(C)(C)CSc2ccccc2)cc1 [CBK268354], viability at 28.5 h, 10 µM 88.6%. Against it:
- CCCC/C=C/c1cnc2[nH]c(=O)n(CCCOC)c2n1 [CBK064540] — higher, 109%
- COCc1cc(=O)[nH]c(N2CCN(Cc3ccccc3)CC2)n1 [CBK270253] — lower, 88.4%
- CC(C)[C@H]1CN(Cc2ccco2)CCN1C(=O)c1cscn1 [CBK285490] — higher, 99.6%
- CC(=O)N1CCc2c([nH]c3ccccc23)C1CNCc1ccc(F)cc1 (stereo not drawn) [CBK066968] — higher, 96.6%
- NC(=O)C1(N2CCCCC2)CCN(C(=S)Nc2ccc(Oc3ccccc3)cc2)CC1 [CBK265862] — lower, 84.7%
- O=[N+]([O-])c1ccccc1S(=O)(=O)N1CCN(Cc2cccnc2)CC1 [CBK264168G] — lower, 68.3%
- Cc1nn(Cc2cccc(C(=O)NCc3ccccn3)c2)c(C)c1Cl [CBK265755] — higher, 97.7%
- Cc1ccc(/C=N/N=C2/N=C(O)C(CC(=O)Nc3ccccc3C(F)(F)F)S2)o1 (stereo not drawn) [CBK263731] — higher, 104%
- C[C@H](NC(=O)N1CCN(C(=O)CCCc2c[nH]c3ccccc23)CC1)C(=O)O [CBK286749] — lower, 88%
- COc1ccc2occ(C(=O)c3ccc(N)cc3)c2c1 [CBK111303] — lower, 81.8%
- Cc1nc(CSc2nc3sc4c(c3c(=O)n2-c2ccccc2)CCCCC4)cs1 [CBK265706] — higher, 110%
- CC(Oc1ccc(C#N)cc1)C(=O)NCC(C)(C)N1CCOCC1 (stereo not drawn) [CBK304066] — higher, 90%
- O=C(C1CCCCC1)N1CCC(n2c(=O)oc3ccccc32)CC1 [CBK284348] — higher, 97.2%
- Cc1ccc2nsnc2c1NC(=O)CN1CCC(C)CC1 [CBK269568] — lower, 86.2%
- CCC1CCCCN1C(=O)C1CCCCC1 (stereo not drawn) [CBK084528] — higher, 90%
- CN(CCOc1ccc(CC2SC(=O)NC2=O)cc1)c1ccccn1 (stereo not drawn) [CBK013537] — higher, 101%
- COCCOCC(=O)N1CC(=O)N(c2ccccc2C#N)CC1C (stereo not drawn) [CBK307258] — higher, 91.7%
- CSCCC(=O)N1CCC2(CCN(Cc3ccccc3)CC2)C1 [CBK136757] — higher, 101%
- C[C@]12CN(Cc3ccc(F)cc3)C[C@H]1NC(=O)c1ccccc1C2=O [CBK284728] — lower, 87.8%
- O=C(Nc1cnc(-c2cccc(C(F)(F)F)c2)c(-c2cccnc2)n1)c1cc(-c2ccco2)n[nH]1 [CBK036878] — higher, 104%
- O=C(NCCN1CCOCC1)C1CCN(c2nc3c(-c4ccccc4F)csc3c(=O)[nH]2)CC1 [CBK215442] — higher, 104%
- CCOC(=O)c1c[nH]c2nc(COc3ccccc3)nn2c1=O [CBK268088] — higher, 107%
- c1ccc2sc(CCSCCc3nc4ccccc4s3)nc2c1 [CBK261036] — higher, 104%
- CSc1ccc(-c2cnc(N)c3ncccc23)cc1 [CBK067584] — lower, 68.4%
- Cc1nc2cc(OCc3ccc(Cn4ccn(C(=O)CCC5CCCC5)c4=O)cc3)ccc2s1 [CBK106641] — higher, 115%
- Nc1ncccc1OCCOc1cccnc1N [CBK022067] — higher, 89.3%
- Cc1nnc(SCC(=O)N2CCCN(c3ccc(F)cc3)CC2)s1 [CBK306908] — higher, 88.7%
- Cc1ccc(/C=C/C(=O)N2CCC3(CC2)CC(=O)c2cc(Cl)ccc2O3)cc1 [CBK156439] — higher, 95.1%
- O=C(NC[C@H]1O[C@@H](CC(=O)N2CCN(c3ccccc3)CC2)[C@H](O)[C@@H]1O)c1ccco1 [CBK288919] — higher, 97.9%
- O=C(CN1CCCCC1)Nc1ccc(NC(=O)CN2CCCCC2)c(Cl)c1 [CBK264173] — higher, 111%
- COc1cccc(C(=O)N2CCC(Cc3cccc(-c4cccs4)c3)(C(N)=O)CC2)c1 [CBK285781] — higher, 97.8%
- Cc1ccc(CN2CCCC(n3c(=O)oc4ccccc43)C2)o1 (stereo not drawn) [CBK284871] — higher, 95.6%
- NC(=O)c1c[nH]c2ccccc12 [CBK027556] — lower, 80.7%
- C[C@H]1[C@@H]2[C@@H](O)C([C@H](C)C(=O)N3CCCC3)CC[C@@]2(C)CC[C@@H]1NC(=O)c1ccncc1 (stereo partly drawn) [CBK289450] — higher, 94.8%
- COc1ccnc(Cn2ncc(N3CCCC3)cc2=O)c1 [CBK304379] — lower, 87.5%
- CCC(C)NC(=O)CN1CCN(Cn2nnc3ccccc3c2=O)CC1 (stereo not drawn) [CBK305032] — higher, 100%
- COc1ccc(OC)c(-n2nnnc2SCC2CCCN(C)C2)c1 (stereo not drawn) [CBK305386] — lower, 84.2%
- Cc1cc(C)c2c(OCC(=O)N(C)CC(=O)NC(C)C)nn(C)c2n1 [CBK304931] — lower, 84.1%
- O=C(CCNS(=O)(=O)c1ccc(Cl)cc1)Nc1ccncc1 [CBK269244] — higher, 99.4%
- CC(C)COC(=O)N1CCC(C(=O)NC(c2ccc(Cl)cc2)c2cnccn2)CC1 (stereo not drawn) [CBK059668] — higher, 99.2%
- COc1ccc(-c2nc3ccccc3s2)cc1O [CBK026156] — higher, 91.6%
- CCc1ccc(-c2csc(NC(=O)CN3C(=O)CCC3=O)n2)cc1 [CBK287347] — higher, 90.3%
- CC1CCCN(C(=O)CCc2nc3sc4c(c3c(=O)[nH]2)CCCC4)C1 (stereo not drawn) [CBK306073] — lower, 87.5%
- COc1ccccc1CNCCc1ccc(S(N)(=O)=O)cc1 [CBK269852C] — higher, 99.7%
- COc1ccc(C(=O)N2CCN(c3nc4c(s3)c(C)nn4C)CC2)cc1 [CBK307457] — higher, 96%
- Cc1ccc(O)c(NC(=S)NC(=O)COc2ccccc2)c1 [CBK264373] — higher, 106%
- Cc1ccc2oc([C@H]3CCN(Cc4ccc(C(=O)O)cc4)C3)nc2c1 [CBK289386] — higher, 100%
- Cc1nc2ncccn2c1-c1csc(Nc2ccc(C(=O)O)cc2)n1 [CBK263284] — higher, 125%
- O=C1N[C@H]2CCCN(C(=O)CCN3CCCC3)[C@H]2C/C=C/CCOc2ccccc21 [CBK292162] — higher, 112%
- Cc1ccccc1C1NS(=O)(=O)NC1=N (stereo not drawn) [CBK263852] — higher, 96.5%
- CC(O)c1cc2c(cc1NC(=O)c1cnn3c1NC(c1ccco1)CC3C(F)(F)F)OCO2 (stereo not drawn) [CBK268850] — lower, 83.3%
- COc1cc(CNC2CCCCC2)cc(I)c1OCC(N)=O [CBK269158C] — higher, 117%
- Cc1nc(CN2CCC(O)(c3ccccc3F)CC2)c2ccccn12 [CBK282799] — higher, 98.1%
- Cc1cnoc1-c1cc(Br)cc(Br)c1O [CBK012420] — higher, 104%
- CCCCC[C@H](O)CCC1[C@H](O)C[C@@H]2Cc3c(cccc3OCC(=O)O)C[C@H]12 (stereo partly drawn) [CBK011575] — higher, 98.3%
- O=C(O)CN(c1ccc2c(c1)OCCO2)S(=O)(=O)c1ccccc1 [CBK268017] — higher, 115%
- COc1cccc(OC)c1-c1cn2ccnc2c(NCCc2ccccn2)n1 [CBK066173] — higher, 109%
- Cc1nc(NS(=O)(=O)Cc2ccccc2)sc1C(=O)O [CBK045552] — higher, 110%
- CC(=O)c1ccccc1-c1ccc(C(=O)NCCc2ccccn2)c(NCC2CC2)n1 [CBK076580] — higher, 98.8%
- O=C(O)CCC(=O)Nc1ccc(Sc2ccc([N+](=O)[O-])cc2)cc1 [CBK020438] — higher, 92.5%
- CCNC(=O)Nc1nc2cccnc2cc1-c1ccc(OC)c(C)c1 [CBK081241] — higher, 94.6%
- CC(=O)c1cc(C#N)c(SCC(=O)O)nc1C [CBK270189] — higher, 95.8%
- COc1ccc(C(=O)CCN(C)CC(=O)O)cc1 [CBK287227] — higher, 89.7%
- Cc1ccc(CN(Cc2cncn2C)C2CC(C)(C)NC(C)(C)C2)o1 [CBK283192] — higher, 103%
- Cc1cc(CNC(=O)C2CC(=O)N(Cc3ccccn3)C2)ccc1F (stereo not drawn) [CBK305557] — lower, 77.3%
- Cc1ccc(C)c(NC(=O)c2cnc3sccn3c2=O)c1 [CBK287451] — lower, 85.1%
- CSCCc1[nH]c(SCC(=O)Nc2cccc3ccccc23)nc1C [CBK266097] — higher, 91.3%
- COc1ccc(C[C@@]23CC[C@@H](NC(=S)NCc4ccccc4)C[C@@H]2N(C)CC3)cc1 [CBK004262] — lower, 88.4%
- CC1CN(Cc2nc3c(c(=O)[nH]c(=O)n3C)n2Cc2cccc(Cl)c2)CC(C)O1 (stereo not drawn) [CBK269450] — higher, 105%
- Cc1ccc(NS(=O)(=O)c2cc(C(=O)N3CCN(C)CC3)ccc2C)cc1C [CBK269268] — higher, 91.2%
- C=CCC1c2cccc(C(=O)O)c2C(=O)N1c1cccc(OC)c1 (stereo not drawn) [CBK113160] — higher, 96.7%
- COc1ccc(C)cc1NC(=O)NC1CCN(Cc2ccccc2)CC1 [CBK267095] — higher, 99.2%
- CCN(CC)CCNC(=O)c1cc(O)nc2ccccc12 [CBK269261] — higher, 99.6%
- CC1(C)CC(=O)C=C(SCC(=O)C(C)(C)C)S1 [CBK005523] — higher, 106%
- O=C(O)CCSc1nnnn1C1CCCCC1 [CBK263052] — higher, 88.9%
- O=C(CSc1nnc2c(n1)[nH]c1ccccc12)Nc1ccccc1[N+](=O)[O-] [CBK263195] — higher, 100%
- O=C(Cc1ccccn1)NC(Cc1ccsc1)c1nccs1 (stereo not drawn) [CBK282821] — lower, 85.7%
- Cc1oc2c(c1C(=O)NCC(=O)NCC(=O)O)CCCC2 [CBK264015] — higher, 97.6%
- Nc1ncnc2c1ncn2C1OC(CO)C(O)C1O (stereo not drawn) [CBK024679] — higher, 92.6%
- CCN(CC)C(=O)C1CCCN(C(=O)NCc2ccc(C#N)cc2)C1 (stereo not drawn) [CBK156132] — higher, 102%
- Cc1cc2occ(CC(=O)NCC(C)n3cncn3)c2cc1C (stereo not drawn) [CBK282614] — higher, 101%
- CCOc1ccc(S(=O)(=O)N(C)CC(=O)N2CCN(C)CC2)cc1 [CBK269953] — higher, 93.8%
- COc1ccc(N2C(=O)c3ccc(C(=O)OCC(=O)c4ccccc4Cl)cc3C2=O)c([N+](=O)[O-])c1 [CBK265514] — lower, 83.7%
- COc1ccc(C(C)NC(=O)CCn2ccc3ccncc32)cc1 (stereo not drawn) [CBK284798] — higher, 92.4%
- Cc1cccc(CN(CCN)C(=O)Nc2ccc(C(C)(C)C)cc2)n1 [CBK046230C] — higher, 96.4%
- O=C(CSc1nc[nH]n1)Nc1ccc(-c2nc3ccccc3s2)cc1 [CBK267146] — lower, 81.9%
- Cc1csc(C2CN(Cc3cn(C)c(=O)n(C)c3=O)CCO2)n1 (stereo not drawn) [CBK305475] — lower, 86.6%
- Cn1cc(CC2CCN(Cc3ccncc3)C2)cn1 (stereo not drawn) [CBK304796] — higher, 107%
- O=c1c2c3c(sc2ncn1CC(O)COc1ccc(F)cc1)CCC3 (stereo not drawn) [CBK295191] — higher, 102%
